{"source": "patent US8652533B2", "about": "(priority 2004, dated 2014)", "key": {"[1]": {"system": "SARS (Toronto-2 Strain)", "experiment": "microbe, parasite or virus in culture", "assay_type": "cell-based, SARS coronavirus (SARSCoV)", "conditions": "for ACTIVITY: conc. 1 μM; for cytoprotective effect in the assay (in words): tested concentration (1 μM)"}, "[2]": {"system": "SARSCoV, strain Urbani", "assay_type": "cell-based, SARS coronavirus (SARSCoV)"}}, "data": [{"compound": "(−)-Epigallocatechin Gallate", "values": [{"measurement": "ACTIVITY", "setting": "[1]", "value": "Active"}, {"measurement": "cytoprotective effect in the assay (in words)", "setting": "[1]", "value": "had cytoprotective effect"}]}, {"compound": "(−)-Gallocatechin Gallate", "values": [{"measurement": "ACTIVITY", "setting": "[1]", "value": "Active"}, {"measurement": "cytoprotective effect in the assay (in words)", "setting": "[1]", "value": "had cytoprotective effect"}]}, {"compound": "Oc1cc(O)c2c(c1)O[C@H](c1ccc(O)c(O)c1)[C@H](O)C2", "note": "[(−)-Epicatechin]", "values": [{"measurement": "ACTIVITY", "setting": "[1]", "value": "Inactive"}, {"measurement": "cytoprotective effect in the assay (in words)", "setting": "[1]", "value": "not"}]}, {"compound": "Oc1cc(O)c2c(c1)O[C@@H](c1cc(O)c(O)c(O)c1)[C@H](O)C2", "note": "[(−)-Gallocatechin]", "values": [{"measurement": "ACTIVITY", "setting": "[1]", "value": "Inactive"}]}, {"compound": "Theaflavindigallate-B", "values": [{"measurement": "ACTIVITY", "setting": "[1]", "value": "Inactive"}]}, {"compound": "Oc1cc(O)c2c(c1)O[C@H](c1ccc(O)c(O)c1)[C@@H](O)C2", "note": "[(+)-Catechin]", "values": [{"measurement": "ACTIVITY", "setting": "[1]", "value": "Inactive"}, {"measurement": "cytoprotective effect in the assay (in words)", "setting": "[1]", "value": "not"}]}, {"compound": "(−)-Catechin", "values": [{"measurement": "ACTIVITY", "setting": "[1]", "value": "Inactive"}]}, {"compound": "O=C(O[C@@H]1Cc2c(O)cc(O)cc2O[C@H]1c1ccc(O)c(O)c1)c1cc(O)c(O)c(O)c1", "note": "[(−)-Catechin Gallate]", "values": [{"measurement": "ACTIVITY", "setting": "[1]", "value": "Active"}]}, {"compound": "Oc1cc(O)c2c(c1)O[C@H](c1cc(O)c(O)c(O)c1)[C@@H](O)C2", "note": "[(+)-Gallocatechin]", "values": [{"measurement": "ACTIVITY", "setting": "[1]", "value": "Inactive"}, {"measurement": "cytoprotective effect in the assay (in words)", "setting": "[1]", "value": "not"}]}, {"compound": "Oc1cc(O)c2c(c1)O[C@H](c1cc(O)c(O)c(O)c1)[C@H](O)C2", "note": "[(−)-Epigallocatechin]", "values": [{"measurement": "ACTIVITY", "setting": "[1]", "value": "Inactive"}, {"measurement": "cytoprotective effect in the assay (in words)", "setting": "[1]", "value": "not"}]}, {"compound": "catechin", "values": [{"measurement": "direct virucidal effect (in words)", "setting": "[2]", "value": "very inhibitory to the virus"}]}, {"compound": "O=c1c(O)cc([C@H]2Oc3cc(O)cc(O)c3C[C@H]2O)cc2c([C@H]3Oc4cc(O)cc(O)c4C[C@H]3O)cc(O)c(O)c12", "note": "[free Theaflavin]", "values": [{"measurement": "ACTIVITY", "setting": "[1]", "value": "Active"}]}, {"compound": "O=C(O[C@@H]1Cc2c(O)cc(O)cc2O[C@@H]1c1cc(O)c(=O)c2c(O)c(O)cc([C@H]3Oc4cc(O)cc(O)c4C[C@H]3OC(=O)c3cc(O)c(O)c(O)c3)c2c1)c1cc(O)c(O)c(O)c1", "note": "[Theaflavindigallate]", "values": [{"measurement": "inhibition at 1 µM", "setting": "[1]; Severe acute respiratory syndrome coronavirus, Vero 76, 72 h, read-out: % CPE (INHIBITION)", "value": 100, "unit": "%"}, {"measurement": "ACTIVITY", "setting": "[1]", "value": "Active"}]}, {"compound": "O=C(O[C@@H]1Cc2c(O)cc(O)cc2O[C@@H]1c1ccc(O)c(O)c1)c1cc(O)c(O)c(O)c1", "note": "[(−)-Epicatechin Gallate]", "values": [{"measurement": "ACTIVITY", "setting": "[1]", "value": "Active"}, {"measurement": "cytoprotective effect in the assay (in words)", "setting": "[1]", "value": "had cytoprotective effect"}]}, {"compound": "Oc1cc(O)c2c(c1)O[C@@H](c1ccc(O)c(O)c1)[C@@H](O)C2", "note": "[(+)-Epicatechin]", "values": [{"measurement": "ACTIVITY", "setting": "[1]", "value": "Inactive"}]}, {"compound": "Theaflavindigallate-A", "values": [{"measurement": "ACTIVITY", "setting": "[1]", "value": "Inactive"}]}]}
